Results from patent publication US20100298141A1, “SUBSTITUTED PYRIDINE N-OXIDE HERBICIDES” (E. I. DU PONT DE NEMOURS AND COMPANY, priority 2007, published 2010).

Legend:
[1] = test system: Italian ryegrass; test: Test C pre-/postemergence test; format: in vivo, Lolium multiflorum
How it was run: (§1)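 Test chemicals were formulated with surfactant in a non-phytotoxic solvent and sprayed both on freshly planted seeds (preemergence) and on 1- to 4-leaf plants of 2–18 cm (postemergence). Flooded-paddy pots received compound directly into 3 cm of standing water, maintained for the test.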

[2] = test system: barnyardgrass; test: Test C flooded paddy test; format: in vivo, Echinochloa crus-galli; conditions: Flood
How it was run: (§2)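 Compound was added to standing water 3 cm above soil, flood maintained, and plants held in a greenhouse before visual scoring against controls at 13 to 15 days.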

[3] = test system: velvetleaf; test: Test A pre-/postemergence greenhouse test; format: in vivo, Abutilon theophrasti; conditions: for Plant response rating, Velvetleaf: 0 to 100 scale where 0 is no effect and 100 is complete control; for Velvetleaf plant response rating: 0 to 100 scale
How it was run: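 Each test compound, dissolved in a non-phytotoxic solvent mixture with surfactant, was sprayed directly onto seeded soil (loam/sand blend) and, at the same moment, onto seedlings carrying one to two leaves. Around ten greenhouse days later, plants were rated visually for injury relative to untreated controls.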

[4] = test system: duck salad; test: Test C flooded paddy test; format: in vivo, Heteranthera limosa; conditions: Flood
How it was run: as §2

[5] = test system: velvetleaf; test: Test C pre-/postemergence test; format: in vivo, Abutilon theophrasti
How it was run: as §1

[6] = test system: soybean; test: Test C pre-/postemergence test; format: in vivo, Glycine max
How it was run: as §1

[7] = test system: johnsongrass; test: Test C pre-/postemergence test; format: in vivo, Sorghum halepense
How it was run: as §1

[8] = test system: corn; test: Test C pre-/postemergence test; format: in vivo, Zea mays
How it was run: as §1

[9] = test system: cocklebur; test: Test C pre-/postemergence test; format: in vivo, Xanthium strumarium
How it was run: as §1

[10] = test system: wild oat; test: Test C pre-/postemergence test; format: in vivo, Avena fatua
How it was run: as §1

[11] = test system: green foxtail; test: Test C pre-/postemergence test; format: in vivo, Setaria viridis
How it was run: as §1

[12] = test system: downy brome; test: Test C pre-/postemergence test; format: in vivo, Bromus tectorum
How it was run: as §1

[13] = test system: catchweed bedstraw; test: Test C pre-/postemergence test; format: in vivo, Galium aparine; conditions: for Plant response rating, Galium: 31 g ai/ha, scale 0 to 100 (0 no effect, 100 complete control)
How it was run: as §1

[14] = test system: blackgrass; test: Test C pre-/postemergence test; format: in vivo, Alopecurus myosuroides
How it was run: as §1

[15] = test system: morningglory; test: Test C pre-/postemergence test; format: in vivo, Ipomoea coccinea
How it was run: as §1

[16] = test system: giant foxtail; test: Test C pre-/postemergence test; format: in vivo, Setaria faberii
How it was run: as §1

[17] = test system: woolly cupgrass; test: Test C pre-/postemergence test; format: in vivo, Eriochloa villosa
How it was run: as §1

[18] = 62 g ai/ha, Preemergence, scale 0 to 100
[19] = 125 g ai/ha, preemergence, scale 0 (no effect) to 100 (complete control)
[20] = Postemergence, 125 g ai/ha, scale 0 to 100, 0 no effect, 100 complete control
[21] = Postemergence, 250 g ai/ha, scale 0 to 100, 0 no effect, 100 complete control
[22] = Preemergence, 31 g ai/ha, scale 0 to 100 (0 no effect, 100 complete control)
[23] = preemergence, 250 g ai/ha, scale 0 (no effect) to 100 (complete control)
[24] = 62 g ai/ha, scale 0 to 100, 0 no effect, 100 complete control, 13 to 15 days
[25] = 250 g ai/ha, scale 0 to 100, 0 no effect, 100 complete control, 13 to 15 days
[26] = Postemergence, 500 g ai/ha, 0 is no effect, 100 is complete control
[27] = Preemergence, 125 g ai/ha, 0 no effect, 100 complete control
[28] = Postemergence, 62 g ai/ha, scale 0 to 100, 0 no effect, 100 complete control
[29] = 31 g ai/ha, scale 0 to 100 (0 no effect, 100 complete control)
[30] = 250 g ai/ha, scale 0 to 100 (0 no effect, 100 complete control)
[31] = preemergence, 125 g ai/ha, scale 0 (no effect) to 100 (complete control)

[O-][n+]1cc(Cl)ccc1[S+]([O-])Cc1c(C(F)(F)F)nn(CC(F)(F)F)c1Cl (stereo not shown) [Compound 47]
50: Ryegrass, Italian plant response rating [1, 19] | Plant response rating, Barnyardgrass [2, 24] | Plant response rating, Soybean [6, 21] | Corn plant response rating [8, 18] | Bromegrass, Downy plant response rating [12, 23] | Blackgrass plant response rating [14, 18] | Plant response rating, Blackgrass [14, 22] | Plant response rating, Foxtail, Giant [16, 21] | Plant response rating, Cupgrass, Woolly [17, 21]
20: Ryegrass, Italian plant response rating [1, 18] | Plant response rating, Velvetleaf [5, 21] | Plant response rating, Soybean [6, 20] | Plant response rating, Blackgrass [14, 28]
90: Plant response rating, Ducksalad [4, 25] | Johnsongrass plant response rating [7, 18] | Oat, Wild plant response rating [10, 19] | Foxtail, Green plant response rating [11, 19] | Galium plant response rating [13, 19] | Plant response rating, Cupgrass, Woolly [17, 22]
100: Plant response rating, Velvetleaf ([3]; Preemergence, 500 g ai/ha) | Velvetleaf plant response rating [5, 23] | Johnsongrass plant response rating [7, 19] | Johnsongrass plant response rating [7, 23] | Foxtail, Green plant response rating [11, 23] | Galium plant response rating [13, 23] | Blackgrass plant response rating [14, 19] | Blackgrass plant response rating [14, 23] | Morningglory plant response rating [15, 18] | Morningglory plant response rating [15, 19] | Plant response rating, Morningglory [15, 22] | Morningglory plant response rating [15, 23] | Foxtail, Giant plant response rating [16, 18] | Foxtail, Giant plant response rating [16, 19] | Foxtail, Giant plant response rating [16, 23] | Cupgrass, Woolly plant response rating [17, 18] | Cupgrass, Woolly plant response rating [17, 19] | Cupgrass, Woolly plant response rating [17, 23]
80: Plant response rating, Barnyardgrass [2, 25] | Soybean plant response rating [6, 23] | Plant response rating, Foxtail, Green [11, 21] | Plant response rating, Galium ([13]; Preemergence)
5: Plant response rating (0 to 100), Soybean ([6]; Postemergence, 31 g ai/ha) | Plant response rating, Foxtail, Green [11, 20]
45: Plant response rating, Corn [8, 22]
98: Corn plant response rating [8, 19] | Corn plant response rating [8, 23]
40: Plant response rating, Ryegrass, Italian [1, 21] | Plant response rating, Oat, Wild [10, 21] | Plant response rating, Blackgrass [14, 20]
10: Oat, Wild plant response rating [10, 18] | Plant response rating, Oat, Wild [10, 20] | Plant response rating, Oat, Wild [10, 22] | Bromegrass, Downy plant response rating [12, 19] | Plant response rating, Bromegrass, Downy [12, 21]
95: Oat, Wild plant response rating [10, 23]
60: Plant response rating, Velvetleaf ([3]; Postemergence, 125 g ai/ha) | Soybean plant response rating [6, 19] | Plant response rating, Corn [8, 21] | Plant response rating, Morningglory [15, 21]
0: Plant response rating (0 to 100), Ryegrass, Italian ([1]; Postemergence, 31 g ai/ha) | Plant response rating (0 to 100), Ryegrass, Italian ([1]; Postemergence, 62 g ai/ha) | Plant response rating, Ryegrass, Italian [1, 20] | Plant response rating, Ryegrass, Italian [1, 22] | Velvetleaf plant response rating [3, 27] | Velvetleaf plant response rating [5, 18] | Plant response rating (0 to 100), Velvetleaf ([5]; Postemergence, 31 g ai/ha) | Plant response rating (0 to 100), Velvetleaf ([5]; Postemergence, 62 g ai/ha) | Plant response rating, Velvetleaf [5, 20] | Plant response rating, Velvetleaf [5, 22] | Plant response rating, Soybean [6, 22] | Plant response rating (0 to 100), Johnsongrass ([7]; Postemergence, 31 g ai/ha) | Plant response rating, Johnsongrass [7, 28] | Plant response rating, Johnsongrass [7, 20] | Plant response rating (0 to 100), Corn ([8]; Postemergence, 31 g ai/ha) | Plant response rating, Corn [8, 28] | Plant response rating, Corn [8, 20] | Cocklebur plant response rating [9, 18] | Cocklebur plant response rating [9, 19] | Plant response rating (0 to 100), Cocklebur ([9]; Postemergence, 31 g ai/ha) | Plant response rating, Cocklebur [9, 28] | Plant response rating, Cocklebur [9, 20] | Plant response rating, Cocklebur [9, 21] | Plant response rating, Cocklebur [9, 22] | Cocklebur plant response rating [9, 23] | Plant response rating (0 to 100), Oat, Wild ([10]; Postemergence, 31 g ai/ha) | Plant response rating, Oat, Wild [10, 28] | Plant response rating (0 to 100), Foxtail, Green ([11]; Postemergence, 31 g ai/ha) | Plant response rating, Foxtail, Green [11, 28] | Bromegrass, Downy plant response rating [12, 18] | Plant response rating (0 to 100), Bromegrass, Downy ([12]; Postemergence, 31 g ai/ha) | Plant response rating, Bromegrass, Downy [12, 28] | Plant response rating, Bromegrass, Downy [12, 20] | Plant response rating, Bromegrass, Downy [12, 22] | Plant response rating (0 to 100), Blackgrass ([14]; Postemergence, 31 g ai/ha) | Plant response rating (0 to 100), Morningglory ([15]; Postemergence, 31 g ai/ha) | Plant response rating, Morningglory [15, 28] | Plant response rating, Morningglory [15, 20] | Plant response rating (0 to 100), Foxtail, Giant ([16]; Postemergence, 31 g ai/ha) | Plant response rating, Foxtail, Giant [16, 28] | Plant response rating, Foxtail, Giant [16, 20] | Plant response rating (0 to 100), Cupgrass, Woolly ([17]; Postemergence, 31 g ai/ha) | Plant response rating, Cupgrass, Woolly [17, 28] | Plant response rating, Cupgrass, Woolly [17, 20]
15: Plant response rating (0 to 100), Soybean ([6]; Postemergence, 62 g ai/ha)
85: Ryegrass, Italian plant response rating [1, 23] | Plant response rating, Johnsongrass [7, 21] | Plant response rating, Johnsongrass [7, 22] | Foxtail, Green plant response rating [11, 18] | Galium plant response rating [13, 18] | Plant response rating, Foxtail, Giant [16, 22]
75: Plant response rating, Ducksalad [4, 24]
70: Velvetleaf plant response rating [3, 26] | Velvetleaf plant response rating [5, 19] | Plant response rating, Foxtail, Green [11, 22] | Plant response rating, Blackgrass [14, 21]

Cn1nc(C(F)(F)F)c(CS(=O)(=O)c2cccc[n+]2[O-])c1OCC(F)(F)F [Compound 29]
0: Plant response rating, Barnyardgrass [2, 29] | Plant response rating, Barnyardgrass [2, 24] | Plant response rating, Corn [8, 22] | Cocklebur plant response rating [9, 18] | Plant response rating, Cocklebur [9, 22] | Cocklebur plant response rating [9, 31] | Plant response rating, Bromegrass, Downy [12, 22] | Plant response rating, Morningglory [15, 22]
80: Plant response rating, Barnyardgrass [2, 30] | Plant response rating, Ducksalad [4, 24] | Corn plant response rating [8, 18] | Plant response rating, Cupgrass, Woolly [17, 22]
100: Plant response rating, Velvetleaf ([3]; Preemergence, 500 g ai/ha) | Velvetleaf plant response rating [5, 18] | Johnsongrass plant response rating [7, 18] | Plant response rating, Johnsongrass [7, 22] | Plant response rating (0 to 100), Johnsongrass ([7]; Preemergence, 250 g ai/ha) | Foxtail, Green plant response rating [11, 18] | Plant response rating (0 to 100), Foxtail, Green ([11]; Preemergence, 250 g ai/ha) | Galium plant response rating [13, 18] | Plant response rating, Galium ([13]; Preemergence) | Plant response rating (0 to 100), Galium ([13]; Preemergence, 250 g ai/ha) | Blackgrass plant response rating [14, 18] | Plant response rating (0 to 100), Blackgrass ([14]; Preemergence, 250 g ai/ha) | Blackgrass plant response rating [14, 31] | Foxtail, Giant plant response rating [16, 18] | Plant response rating, Foxtail, Giant [16, 22] | Plant response rating (0 to 100), Foxtail, Giant ([16]; Preemergence, 250 g ai/ha) | Cupgrass, Woolly plant response rating [17, 18] | Plant response rating (0 to 100), Cupgrass, Woolly ([17]; Preemergence, 250 g ai/ha)
70: Velvetleaf plant response rating [3, 26] | Plant response rating, Ducksalad [4, 29] | Soybean plant response rating [6, 18]
85: Ryegrass, Italian plant response rating [1, 18] | Plant response rating, Foxtail, Green [11, 22]
60: Plant response rating, Ryegrass, Italian [1, 22] | Plant response rating (0 to 100), Bromegrass, Downy ([12]; Preemergence, 250 g ai/ha) | Bromegrass, Downy plant response rating [12, 31]
98: Plant response rating (0 to 100), Corn ([8]; Preemergence, 250 g ai/ha) | Corn plant response rating [8, 31] | Plant response rating, Blackgrass [14, 22]
30: Plant response rating, Velvetleaf [5, 22]
50: Oat, Wild plant response rating [10, 18]
40: Plant response rating, Barnyardgrass ([2]; 125 g ai/ha, scale 0 to 100, 0 no effect, 100 complete control, 13 to 15 days) | Velvetleaf plant response rating ([3]; Postemergence, 125 g ai/ha, 0 is no effect, 100 is complete control) | Velvetleaf plant response rating [3, 27]
20: Plant response rating, Oat, Wild [10, 22] | Bromegrass, Downy plant response rating [12, 18]
10: Plant response rating (0 to 100), Cocklebur ([9]; Preemergence, 250 g ai/ha) | Morningglory plant response rating [15, 18]
90: Plant response rating, Ducksalad [4, 30]
